One data set in a line: in vitro. The settings on record: African green monkey.
The subject of data set [1] is SARS-CoV-2. The format is cell-based. The settings on record: 20 µM, Vero cells; for nuclei numbers compared to the control: DAPI.
In data set [2] the test system is SARS-CoV-2 (original wild-type, hCoV-19/Korea/KCDC06/2020). The data set can be described thus: microbe, parasite or virus in culture. The conditions noted are these: for EC50: Severe acute respiratory syndrome coronavirus 2, Vero cells, immunofluorescence images, n = 3, read-out: EC50, half maximal effective concentration to reduce SARS-CoV-2 spike protein expression by 50%. The format is cell-based.

The subject of data set [3] is SARS-CoV-2. Put plainly: Confocal microscopy of viral N protein distribution (endocytic uptake) in Vero cells. The conditions noted are these: 10 or 30 µM. The format is cell-based.
The next data set concerns Calu-3 cells. The conditions noted are these: MTT.
For data set [4] the following is noted: mice.
Data set [5] concerns SARS-CoV-2. It counts as cell-based. The settings on record: Calu-3 cells; 0.001–100 µM; day 2.
In data set [6] the test system is endo-lysosomal vesicles of Vero cells. Put plainly: Acridine orange staining of endo-lysosomal vesicle pH in Vero cells. The format is cell-based. The settings on record: 10 µM, 1 h at 37°C. Here is the method: To monitor pH changes in endo-lysosomal vesicles, Vero cells (8 × 10^4 cells per 35 mm dish) were treated with either DMSO or 10 µM diphenoxylate for 1 h at 37°C. After washing with PBS, they were stained with acridine orange (8 µg/mL) for an additional 30 min. With excitation at 488 nm, live cell images were scanned at two wide-band emission wavelength ranges: 493–560 nm (green) and 590–720 nm (red). All fluorescent images were obtained using a Zeiss LSM 700 confocal microscope and analyzed with ZEN software (Carl Zeiss, Thornwood, NY, USA).
Fig 4 Deacidification of endo-lysosomal vesicles by diphenoxylate. Vero cells were treated with DMSO as a mock control (upper), or with 10 µM diphenoxylate (lower), at 37°C for 1 h. […] Fluorescence images were acquired after excitation at 488 nm, at two different emission wavelengths: 493–560 nm (green; left) and 590–720 nm (red; middle). The images were merged (right) to distinguish acidic (red) and neutralized cytoplasmic vesicles (green or yellow) based on the red-to-green fluorescence intensity ratio. […]
Figure S2. […] After excitation at 488 nm, fluorescence images were acquired at two different emission wavelengths: 493-560 nm (green; left) and 590-720 nm (red; middle). The images were merged (right) to distinguish acidic (red) and neutralized cytoplasmic vesicles (green or yellow) based on the red-to-green fluorescence intensity ratio. […]

The nature of a further data set: in vivo. The settings on record: male, ICR, mouse, iv, 5 mg/kg, T1/2, terminal half-life in plasma, mice, diphenoxylate 5 mg/kg intravenously, analyte in plasma, mean ± SEM, three mice.
The test system of data set [7] is SARS-CoV-2. The format is cell-based.
Data set [8] relates to SARS-CoV-2. The format is in vivo, mice.
Data set [9] has as its system SARS-CoV-2. Put plainly: Antiviral assay using human tonsil organoids (RT-PCR of supernatants). The conditions noted are these: day 2. It counts as cell-based.
In data set [10] the test system is SARS-CoV-2. The format is cell-based. The source holds these as a separate data set.
Data set [11] has as its system SARS-CoV-2. The format is cell-based. The conditions noted are these: Calu-3 cells, day 2.
For data set [12], the system named is SARS-CoV-2. The format is cell-based. The conditions noted are these: Vero cells; 1, 10 and 100 µM; day 1.
The subject of data set [13] is SARS-CoV-2. Put plainly: Antiviral activity assay (anti-S immunofluorescence) in Calu-3 cells. The settings on record: Severe acute respiratory syndrome coronavirus 2, Calu-3, 24 h.
Text: These mixtures were serially diluted threefold, eight times, in EMEM and used to treat SARS-CoV-2-infected Calu-3 cells (MOI of 0.01). On day 1, cells were immunostained with an anti-S-antibody and its fluorescently labeled secondary antibody to estimate the two fractional EC50s (FEC50s) for each drug combination, as well as their sum (ΣFEC50). The interaction was defined as synergistic when the ΣFEC50 value was less than 0.8 ([27]).
Calu-3 cells were either mock-infected or infected with SARS-CoV-2 (MOI, 0.1)
On Day 1 after treatment, the viral S protein was labeled with its specific antibody for an
immunofluorescence assay, while mock-infected cells were incubated with MTT.
activity was determined by calculating the percentage inhibition of the S protein level relative
to that in SARS-CoV-2-infected, DMSO-treated cells (red line).
are represented as the mean ± SEM from three independent experiments.
The conditions of data set [14]: cited from earlier work.

The text below walks through data of PMC11620506, “Inhibition of endocytic uptake of severe acute respiratory syndrome coronavirus 2 and endo-lysosomal acidification by diphenoxylate” (Antimicrobial Agents and Chemotherapy, 2024).

“Also recorded” adds a separate entry of the source. Like-named read-outs stand apart in the source and are kept apart here.

Experimental for in vitro: Following the method described earlier, Vero cells in 96 wells were treated with threefold serial dilutions of each compound, ranging from 100 µM to 5 nM, both with and without SARS-CoV-2 infection at 0.01 MOI. […] Concurrently, the viability of mock-infected cells was assessed using a 3-(4,5-dimethylthiazol-2-yl)−2,5-diphenyltetrazolium bromide (MTT) assay to determine the 50% cytotoxic concentration (CC50). The selectivity index (SI) is calculated as the ratio of CC50 to EC50.

Take `Fc1ccc(C(c2ccc(F)cc2)N2CCN(C/C=C/c3ccccc3)CC2)cc1` [Flunarizine, flunarizine]: the CC50 in “in vitro” came out at 30.6 ± 1.8 µM. Further, in the data set with SARS-CoV-2 [1], the “nuclei numbers compared to the control” value is 80%–120% and the “reduction of S protein expression level” value is “over 90%”. For the same molecule, in data set [2], the “SI, selectivity index, ratio of CC50 to EC50” value (from here on “SI, selectivity index, ratio”) came to 2.4 and the EC50 amounted to 12.9 ± 5.7 µM.
A word on the half-life: it is the time in which the quantity being followed falls by half. For `CCOC(=O)C1(c2ccccc2)CCN(CCC(C#N)(c2ccccc2)c2ccccc2)CC1` [Diphenoxylate, diphenoxylate], the “effect on receptor-mediated endocytosis of SARS-CoV-2 (N protein localisation)” value with SARS-CoV-2 [3] is given as “inhibits receptor-mediated endocytosis of SARS-CoV-2”. In addition, the “cytotoxicity at the highest tested concentration” value in the data set with Calu-3 cells (300 µM) was “no cytotoxicity”. For the same molecule, the CC50 in the data set “in vitro” was greater than 100 µM. In addition, the “fraction converted into difenoxin” value in [4] (within 30 min after intravenous injection, 5 mg/kg) is on record as “approximately 90%”. Besides, the “expression of viral proteins S and N (Western blot)” value in the data set with SARS-CoV-2 [5] was “suppressed the expression of viral proteins S and N dose dependently”. For the same molecule, the “effect on acidic pH of endo-lysosomal vesicles” value in [6] is “neutralizes the acidic environment of endo-lysosomal organelles”. The molecule further had a half-life in “in vivo” of 6.4 ± 0.9 h. Moreover, the “reduction in plaque numbers” value in the data set on SARS-CoV-2 [7] is reported as “approximately two-log reduction; also recorded: substantial reduction; also recorded: not under the post-treatment condition”. The “reduction in plaque numbers” value in the data set with SARS-CoV-2 [7] (20 µM, co-treatment (pre-incu), 30 min preincubation with virus) was “substantial reduction”. Also, in the data set on SARS-CoV-2 [1], the “nuclei numbers compared to the control” value was 80%–120% and the “reduction of S protein expression level” value is “over 90%”. Moreover, in the data set on SARS-CoV-2 [8] (hACE2 transgenic mice, […], on day 3, 10 mg/kg/day), the “reduction of viral RNA copy number in the lungs” value was found to be 70%. In addition, the “viral RNA levels in lungs (qRT-PCR, S gene)” value in the data set with SARS-CoV-2 [8] (mouse, in vivo, 10 mg/kg/day) is recorded as “significantly reduced”. For the same molecule, in data set [2], the “SI, selectivity index, ratio” value was greater than 71.4 and the EC50 came out at 1.4 ± 1.1 µM. Also, the “reduction in viral RNA levels in culture supernatants” value with SARS-CoV-2 [9] (100 µM) is “between one and two logs”. The “viral RNA copy numbers in culture supernatants” value in the data set with SARS-CoV-2 [10] is “efficiently suppressed”. For the same molecule, in the data set on SARS-CoV-2 [11] (10 µM), the “decrease of viral RNA levels in culture supernatants” value was “one”. In the data set with SARS-CoV-2 [12], the “levels of S2 and additional S cleavage products (Western blot)” value is recorded as “dose-dependently reduced”. The EC50 in the data set on SARS-CoV-2 [13] was found to be 21.9 ± 2.1 µM.
Take `N#CC(CCN1CCC(C(=O)O)(c2ccccc2)CC1)(c1ccccc1)c1ccccc1` [Difenoxin, difenoxin]: the CC50 in “in vitro” is greater than 100 µM. Moreover, in data set [4] (diphenoxylate 5 mg/kg intravenously, analyte in plasma, mean ± SEM, three mice), the “T1/2, terminal half-life in plasma” value is on record as 3.6 ± 0.2 h. Further, the “effect on acidic pH of endo-lysosomal vesicles” value in data set [6] is “failed to deacidify endo-lysosomes”. Moreover, the half-life in “in vivo” was 6.4 h. Besides, the EC50 in [2] was greater than 100 µM.
In the case of `CC(C)C(=O)OC[C@H]1O[C@@H](n2ccc(NO)nc2=O)[C@H](O)[C@@H]1O` [molnupiravir], the “viral RNA levels in lungs (qRT-PCR, S gene)” value in the data set with SARS-CoV-2 [8] (hACE2 transgenic mice, 50 mg/kg/day oral, BID, […]) is recorded as “significantly reduced”.
As to `N=C(N)c1ccc2cc(OC(=O)c3ccc(N=C(N)N)cc3)ccc2c1` [nafamostat], the “cytotoxicity at the highest tested concentration” value in the data set with Calu-3 cells (300 nM) was “no cytotoxicity”. The EC50 in the data set with SARS-CoV-2 [13] came to 0.0035 ± 0.0005 µM.
In the case of `CCC(CC)COC(=O)[C@H](C)N[P@](=O)(OC[C@H]1O[C@@](C#N)(c2ccc3c(N)ncnn23)[C@H](O)[C@@H]1O)Oc1ccccc1` [RDV, remdesivir], the CC50 in the data set “in vitro” was greater than 100 µM. For the same molecule, the EC50 in [2] came out at 7.6 ± 1.2 µM. In the data set with SARS-CoV-2 [9] (10 µM), the “reduction in viral RNA levels in culture supernatants” value is “between one and two logs”. For the same molecule, the “viral RNA copy numbers in culture supernatants” value in the data set on SARS-CoV-2 [10] was “efficiently suppressed”. Further, the “reduction of viral RNA levels in culture supernatants” value with SARS-CoV-2 [11] (concentration not given) is listed as “exceeding four logs”. Also, the “levels of S2 and additional S cleavage products (Western blot)” value in the data set on SARS-CoV-2 [12] is recorded as “dose-dependently reduced”.
As to `COC(=O)C1=C(C)NC(C)=C(C(=O)OCCN2CCN(C(c3ccccc3)c3ccccc3)CC2)C1c1cccc([N+](=O)[O-])c1` (stereo not drawn) [Manidipine, manidipine], the CC50 in the data set “in vitro” was determined as 46.6 ± 0.5 µM. For the same molecule, in the data set on SARS-CoV-2 [1], the “nuclei numbers compared to the control” value was 80%–120% and the “reduction of S protein expression level” value is given as “over 90%”. Besides, in data set [2], the “SI, selectivity index, ratio” value came to 1.7 and the EC50 was found to be 26.8 ± 1.1 µM.
In the case of `Cc1cccc(CN2CCN(C(c3ccccc3)c3ccc(Cl)cc3)CC2)c1` (stereo not drawn) [Meclizine, meclizine], in the data set “in vitro”, the CC50 stood at 89.5 ± 4.4 µM. Further, in the data set on SARS-CoV-2 [1], the “nuclei numbers compared to the control” value is 80%–120% and the “reduction of S protein expression level” value is reported as “over 90%”. For the same molecule, in data set [2], the “SI, selectivity index, ratio” value turned out to be 4.2 and the EC50 stood at 21.4 ± 3 µM.
With `OC(CCN1CCCCC1)(c1ccccc1)c1ccccc1` [pridinol], in data set [2], the EC50 was roughly 96.4 µM.
Regarding `CN(C)c1ccc2cc3ccc(N(C)C)cc3nc2c1` [acridine orange], in data set [14], the pKa result is “approximately 9.65”.
